In ChEMBL document CHEMBL5325454, “Synthesis, anti-ferroptosis, anti-quorum sensing, antibacterial and DNA interaction studies of chromene-hydrazone derivatives” (Bioorg Med Chem, 2023):
In brackets after ≈: the same amount, converted by molar mass. Activity calls are given as the source filed them. The rule behind the calls is not given here.

Legend:
DNA [1] = assay: Induction of Escherichia coli supercoiled pBR322 DNA cleavage in absence of Cu2+ ion incubated overnight by GelRed DNA gel staining based electrophoresis analysis; format: nucleic-acid assay
[2] = Inhibition of quorum sensing system in Vibrio harveyi BB120 assessed as reduction in luminescence incubated for 5 hrs under shaking condition by luminescence microplate reader analysis
HaCaT [3] = assay: Anti-ferroptotic activity against Erastin-induced ferroptosis in human HaCaT cells assessed as increase in cell viability at 5 uM preincubated with compound for 4 hrs followed by […] administration and measured after 24 hrs by MTT assay relative to control; format: functional; details: time 28 hrs
DNA [4] = assay: Induction of Escherichia coli supercoiled pBR322 DNA cleavage assessed as cleavage of DNA into open-circular forms in presence of Copper(II)acetate incubated overnight by GelRed DNA gel staining based electrophoresis analysis; format: nucleic-acid assay
Vibrio harveyi [5] = assay: Antibacterial activity against Vibrio harveyi BB120 assessed as inhibition of bacterial growth measured at 24 hrs by broth microdilution assay; format: functional
Calf thymus DNA [6] = assay: Binding affinity to calf thymus DNA assessed as hyperchromicity by UV-Vis spectroscopic analysis; format: nucleic-acid assay; details: Bos taurus; dose <= 30.0 µM
Calf thymus DNA [7] = assay: Binding affinity to calf thymus DNA assessed as apparent binding constant upto 30 uM by UV-Vis spectroscopic analysis; format: nucleic-acid assay; details: Bos taurus
HaCaT [8] = assay: Anti-ferroptotic activity against Erastin-induced ferroptosis in human HaCaT cells assessed as cell viability at 5 uM preincubated with compound for 4 hrs followed by […] administration and measured after 24 hrs by MTT assay relative to control; format: functional; details: time 28 hrs
Vibrio harveyi [9] = assay: Antibacterial activity against Vibrio harveyi BB120 assessed as inhibition of bacterial growth upto 250 uM measured at 24 hrs by broth microdilution assay; format: functional, organism-based
HaCaT [10] = assay: Anti-ferroptotic activity against Erastin-induced ferroptosis in human HaCaT cells assessed as increase in cell viability at 5 uM preincubated with compound for 4 hrs followed by […] administration and measured after 24 hrs by MTT assay; format: functional, cell-based; details: time 28.0 hrs
Vibrio harveyi [11] = assay: Antibacterial activity against Vibrio harveyi BB120 assessed as inhibition of bacterial growth at 1 to 1024 ug/ml measured at 24 hrs by broth microdilution assay; format: functional, organism-based; details: dose 1-1024 µg/ml
Escherichia coli = assay: Antibacterial activity against Escherichia coli assessed as inhibition of bacterial growth; format: functional, organism-based
Staphylococcus aureus [12] = assay: Antibacterial activity against methicillin-resistant Staphylococcus aureus MW2 assessed as zone of inhibition incubated overnight by disc diffusion assay; format: functional
Staphylococcus aureus [13] = assay: Antibacterial activity against methicillin-resistant Staphylococcus aureus MW2 assessed as inhibition of bacterial growth measured at 24 hrs by broth microdilution assay; format: functional

Row | Compound | Activity (DNA [1]) | inhibition [2] | Activity (HaCaT [3]) [%] | Activity (DNA [4]) | MIC (Vibrio harveyi [5]) [µM] | also measured
1 | CC1(C)C=Cc2c(ccc(/C=N/NC(=O)c3ccccc3)c2O)O1 | inactive | inactive | 44 | Active | 7.8 (≈ 2.51 µg/mL) | 
2 | CC1(C)C=Cc2c(ccc(/C=N/NC(N)=O)c2O)O1 | inactive |  |  | Active |  | IC50 [2]: 27 µM; Activity (Calf thymus DNA [6]): Dose-Dependent Effect; Kapp (Calf thymus DNA [7]): 9.55 10^3/M; Activity (HaCaT [8]): 18%; Activity (Vibrio harveyi [9]): inactive
3 | CC1(C)C=Cc2c(ccc(/C=N/NS(=O)(=O)c3ccc(C(F)(F)F)cc3)c2O)O1 | inactive |  |  | Active |  | IC50 [2]: > 250 µM; Activity (Calf thymus DNA [6]): Dose-Dependent Effect; Kapp (Calf thymus DNA [7]): 6.02 10^3/M; Activity (HaCaT [10]): inactive; Activity (Vibrio harveyi [9]): inactive
4 | CC1(C)C=Cc2c(ccc(/C=N/NC(=O)c3ccncc3)c2O)O1 | inactive | inactive | 34 | Active | 15.6 (≈ 5.04 µg/mL) | 
5 | COc1ccc(C(=O)N/N=C/c2ccc3c(c2O)C=CC(C)(C)O3)cc1 | inactive | inactive | 44 | Active |  | Activity (Vibrio harveyi [11]): inactive
6 | CC1(C)C=Cc2c(ccc(/C=N/NC(=O)c3ccc([N+](=O)[O-])cc3)c2O)O1 | inactive | inactive | 34 | Active |  | Activity (Vibrio harveyi [11]): inactive
7 | CC1(C)C=Cc2c(ccc(/C=N/NC(=O)c3cccnc3)c2O)O1 | inactive | inactive | 34 | Active | 10 (≈ 3.23 µg/mL) | 
8 | CC1(C)C=Cc2c(ccc(/C=N/NC(=O)c3ccc(C(C)(C)C)cc3)c2O)O1 | inactive | inactive | 44 | Active |  | Activity (Vibrio harveyi [11]): inactive
9 | Cc1cc(C(=O)N/N=C/c2ccc3c(c2O)C=CC(C)(C)O3)ccc1[N+](=O)[O-] | inactive | inactive | 34 | Active | 62.5 (≈ 23.8 µg/mL) | 
10 | O=c1c(O)c(-c2ccc(O)c(O)c2)oc2cc(O)ccc12 [FISETIN] |  |  | 42 |  |  | 
11 | CC1(C)C=Cc2c(ccc(/C=N/NC(N)=S)c2O)O1 | inactive | inactive | 54 | Active | 125 (≈ 34.7 µg/mL) | 
12 | Cc1ccc(S(=O)(=O)N/N=C/c2ccc3c(c2O)C=CC(C)(C)O3)cc1 | inactive |  |  | Active |  | IC50 [2]: > 250 µM; Activity (HaCaT [10]): inactive; Activity (Vibrio harveyi [9]): inactive
13 | CC1(C)C=Cc2c(ccc(/C=N/NC(=O)c3ccc(Cl)cc3)c2O)O1 | inactive | inactive | 44 | Active | > 250 | 
14 | CC(=O)N/N=C/c1ccc2c(c1O)C=CC(C)(C)O2 | inactive | inactive |  | Active | 40 (≈ 10.4 µg/mL) | Activity (HaCaT [10]): Active
15 | CC1(C)C=Cc2c(ccc(/C=N/NS(=O)(=O)c3ccccc3)c2O)O1 | inactive |  |  | Active |  | IC50 [2]: 22 µM; Activity (Vibrio harveyi [9]): inactive
16 | Cc1ccc(C(=O)N/N=C/c2ccc3c(c2O)C=CC(C)(C)O3)cc1 | inactive | inactive | 44 | Active | > 250 | 
17 | CC1(C)C=Cc2c(ccc(/C=N/NC(=O)c3ccc(O)cc3)c2O)O1 | inactive | inactive | 44 | Active | 3.9 (≈ 1.32 µg/mL) | 
18 | CC1(C)C=Cc2c(ccc(/C=N/NC(=O)c3ccc(O)cc3O)c2O)O1 | inactive | inactive | 34 | Active | 10 (≈ 3.54 µg/mL) | Activity (Escherichia coli): inactive; inhibition zone (IZ) (Staphylococcus aureus [12]): 11 mm; Activity (Calf thymus DNA [6]): Dose-Dependent Effect; MIC (Staphylococcus aureus [13]): 64 µg/mL (≈ 181 µM); Kapp (Calf thymus DNA [7]): 5.73 10^3/M
19 | CC1(C)C=Cc2c(ccc(/C=N/NC(=O)c3ccccn3)c2O)O1 | inactive | inactive | 34 | Active |  | Activity (Vibrio harveyi [11]): inactive
20 | CC1(C)C=Cc2c(ccc(/C=N/NC(=O)c3ccc(Br)cc3)c2O)O1 | inactive | inactive | 44 | Active |  | Activity (Vibrio harveyi [11]): inactive
